Assay results taken from US20120035444A1, “INTRAVITAL SAMPLE DEVICE FOR IN VIVO DRUG SCREENING” (NATIONAL TAIWAN UNIVERSITY, priority 2008, published 2012).

Tested on: liver
Settings: feeding for 10 days (FIG. 8)
From the text: Two-photon microscopy was used to observe living organism. […] The multiphoton microscope is illustrated in FIG. 5. […] The SHG signal was collected in the backscattering geometry.
When the liver was damaged, the function of hepatocytes would also be damaged. In the present invention, CCl4 was applied to simulate the reaction of hepatocyte when the liver was toxic.

ClC(Cl)(Cl)Cl [CCl4]
liver state after feeding CCl4: fibrosis
